According to ChEMBL document CHEMBL1127179, “Synthesis and 5-HT3 receptor agonist activity of arylureas derived from histamine” (Bioorg Med Chem Lett, 1993):

Columns and labels:
[1] = target: Serotonin 3 (5-HT3) receptor; assay: Binding affinity for the 5-hydroxytryptamine 3 receptor was evaluated in vitro by examining its ability to displace [3H]-BRL 43694.; format: protein-complex assay
[2] = target: Serotonin 3 (5-HT3) receptor (Homo sapiens) (UniProt P46098+A5X5Y0+O95264+Q70Z44+Q8WXA8); assay: Tested for 5-hydroxytryptamine 3 receptor antagonist activity by inhibiting the 5-HT evoked Bezold-Jarisch reflex; format: functional

Row | Compound | Log Ki [1] | -Log ED50 [2]
1 | CCOc1ccccc1NC(=O)NCCc1c[nH]cn1 | -7.35 | 7.2
2 | NCCc1c[nH]c2ccc(O)cc12 |  | 7.4
3 | COc1ccc(Cl)cc1NC(=O)NCCc1c[nH]cn1 | -8.86 | 6.8
4 | COc1cc(F)ccc1NC(=O)NCCc1c[nH]cn1 | -7.39 | 7
5 | COc1ccccc1NC(=O)NCCc1c[nH]cn1 | -7.55 | 7
6 | Cn1nc(C(=O)NCCc2c[nH]cn2)c2ccccc21 | -7.84 | 6.9
7 | COc1ccc(F)cc1NC(=O)NCCc1c[nH]cn1 | -7.69 | 7.4
